Laboratory results reported in ChEMBL document CHEMBL3232840, “Anti-proliferative activity of 2,6-dichloro-9- or 7-(ethoxycarbonylmethyl)-9H- or 7H-purines against several human solid tumour cell lines” (Eur J Med Chem, 2014).

Key:
HCT-116 [1] = assay: Antiproliferative activity against human HCT116 cells after 3 days by sulforhodamine-B colorimetric assay; type: functional, cell-based; details: HCT-116, 72 h
[2] = Antiproliferative activity against human G361 cells after 3 days by sulforhodamine-B colorimetric assay; type: functional, cell-based; details: G-361, 72 h
MCF7 [3] = assay: Antiproliferative activity against human MCF7 cells after 3 days by sulforhodamine-B colorimetric assay; type: functional, cell-based; details: MCF7, 72 h
A-375 [4] = assay: Antiproliferative activity against human A375 cells after 3 days by sulforhodamine-B colorimetric assay; type: functional, cell-based; details: A-375, 72 h
HCT-116 [5] = assay: Cell cycle arrest human HCT116 cells assessed as accumulation at G0/G1 phase at IC50 after 24 hrs by flow cytometry (reference value: 44.70 +/- 0.38 % ); type: functional
HCT-116 [6] = assay: Cell cycle arrest human HCT116 cells assessed as accumulation at G2/M phase at IC50 after 24 hrs by flow cytometry (reference value: 17.02 +/- 1.40 % ); type: functional
HCT-116 [7] = assay: Induction of apoptosis in human HCT116 cells at IC50 after 24 hrs by annexin V-FITC/PI-based flow cytometry (reference value: 7.27 +/- 1.57 % ); type: functional
A-375 [8] = assay: Cell cycle arrest human A375 cells assessed as accumulation at G2/M phase at IC50 after 24 hrs by flow cytometry (reference value: 12.42 +/- 0.70 % ); type: functional
MCF7 [9] = assay: Cell cycle arrest human MCF7 cells assessed as accumulation at S phase at IC50 after 24 hrs by flow cytometry (reference value: 14.50 +/- 1.06 % ); type: functional
HCT-116 [10] = assay: Cell cycle arrest human HCT116 cells assessed as accumulation at S phase at IC50 after 24 hrs by flow cytometry (reference value: 38.26 +/- 1.40 % ); type: functional
MCF7 [11] = assay: Cell cycle arrest human MCF7 cells assessed as accumulation at G0/G1 phase at IC50 after 24 hrs by flow cytometry (reference value: 34.58 +/- 0.09 % ); type: functional
A-375 [12] = assay: Cell cycle arrest human A375 cells assessed as accumulation at S phase at IC50 after 24 hrs by flow cytometry (reference value: 29.60 +/- 0.78 % ); type: functional
A-375 [13] = assay: Cell cycle arrest human A375 cells assessed as accumulation at G0/G1 phase at IC50 after 24 hrs by flow cytometry (reference value: 57.97 +/- 0.93 % ); type: functional
MCF7 [14] = assay: Cell cycle arrest human MCF7 cells assessed as accumulation at G2/M phase at IC50 after 24 hrs by flow cytometry (reference value: 50.91 +/- 1.15 % ); type: functional
A-375 [15] = assay: Induction of apoptosis in human A375 cells at IC50 after 24 hrs by annexin V-FITC/PI-based flow cytometry (reference value: 6.83 +/- 0.40 % ); type: functional
MCF7 [16] = assay: Induction of apoptosis in human MCF7 cells at IC50 after 24 hrs by annexin V-FITC/PI-based flow cytometry (reference value: 10.80 +/- 0.85 % ); type: functional

IC50 (HCT-116 [1]) [µM] | IC50 (MCF7 [3]) [µM] | IC50 (A-375 [4]) [µM] | Structure (SMILES) | IC50 [2] [µM] | Activity (HCT-116 [5]) [%] | Activity (HCT-116 [6]) [%] | Activity (HCT-116 [7]) [%] | Activity (A-375 [8]) [%] | Activity (MCF7 [9]) [%] | Activity (HCT-116 [10]) [%] | Activity (MCF7 [11]) [%] | Activity (A-375 [12]) [%] | Activity (A-375 [13]) [%] | Activity (MCF7 [14]) [%] | Activity (A-375 [15]) [%] | Activity (MCF7 [16]) [%]
68 | 49.8 | 14.5 | CCOC(=O)Cn1cnc2ncnc(Cl)c21 | 21.4 | – | – | – | – | – | – | – | – | – | – | – | –
22.6 | 30.5 | 50.9 | CCOC(=O)Cn1c(=O)[nH]cc(F)c1=O | 25.4 | – | – | – | – | – | – | – | – | – | – | – | –
24.6 | 25.2 | 38.4 | CCOC(=O)Cn1cc(F)c(=O)[nH]c1=O | 29 | – | – | – | – | – | – | – | – | – | – | – | –

The remaining lines, values behind:

Structure (SMILES) | IC50 (HCT-116 [1]) [µM] | IC50 (MCF7 [3]) [µM] | IC50 (A-375 [4]) [µM] | IC50 [2] [µM] | Activity (HCT-116 [5]) [%] | Activity (HCT-116 [6]) [%] | Activity (HCT-116 [7]) [%] | Activity (A-375 [8]) [%] | Activity (MCF7 [9]) [%] | Activity (HCT-116 [10]) [%] | Activity (MCF7 [11]) [%] | Activity (A-375 [12]) [%] | Activity (A-375 [13]) [%] | Activity (MCF7 [14]) [%] | Activity (A-375 [15]) [%] | Activity (MCF7 [16]) [%]
CCOC(=O)Cn1cnc2c(Br)ncnc21 | 23.5 | 14.1 | 13.4 | 15.8 | – | – | – | – | – | – | – | – | – | – | – | –
CCOC(=O)Cn1cnc2nc(Cl)nc(Cl)c21 | 6.36 | 5.63 | 4.98 | 5.67 | 33.58 | 28.47 | 17.03 | 9.34 | 18.27 | 37.93 | 34.54 | 20.1 | 70.55 | 47.19 | 27.13 | 24.1
CCOC(=O)Cn1cnc2ncnc(Br)c21 | 55.7 | 20.2 | 26.7 | 18.3 | – | – | – | – | – | – | – | – | – | – | – | –
CCOC(=O)Cn1cnc2c(Cl)ncnc21 | 5.27 | 35.1 | 18.9 | 21.4 | – | – | – | – | – | – | – | – | – | – | – | –
CCOC(=O)Cn1cnc2c(Cl)nc(Cl)nc21 | 6.2 | 3.93 | 1.18 | 3.06 | 45.93 | 17.31 | 20.2 | 12.73 | 15.39 | 36.75 | 28.17 | 28.78 | 58.48 | 54.63 | 35.37 | 20.53
